Experimental findings from publication PMC5447021, “TNF Lectin-Like Domain Restores Epithelial Sodium Channel Function in Frameshift Mutants Associated with Pseudohypoaldosteronism Type 1B” (Frontiers in Immunology, 2017) are described below.

Common to all, as to format: cell-based, human
One test deals with βγ-ENaC. The test can be described thus: Whole-cell patch clamp, WT βγ-ENaC. To be noted: HEK-293, 200 nM solnatide, n = 3. The procedure: (§1) HEK-293 cells were transfected 1 day after cell seeding using X-tremeGENE HP DNA transfection reagent (Roche Diagnostics, Mannheim, Germany) according to the manufacturer’s protocol. A set of WT or mutant αβγ- or δβγ-hENaC, or α-, β-, γ-, or δ-hENaC alone was used, and the ratio of DNA to transfection reagent was 1:3. The expression was highest 48–72 h after transfection.
Electrophysiological experiments were performed as described in detail by Shabbir et al. ([16]). […] Currents were recorded with the patch clamp method in the whole-cell mode. The chamber contained 1 ml of the bath solution of the following composition (in mM): 145 NaCl, 2.7 KCl, 1.8 CaCl2, 2 MgCl2, 5.5 glucose, and 10 HEPES, adjusted to pH 7.4 with 1 M NaOH solution. Micropipettes were pulled from thin-walled borosilicate glass capillaries (Harvard Apparatus, Holliston, MA, USA) with a DMZ Zeitz Puller to obtain electrode resistances ranging from 2 to 5 MΩ. The pipette solution contained (in millimolars): 135 potassium methane sulfonate, 10 KCl, 6 NaCl, 1 Mg2ATP, 2 Na3ATP, 10 HEPES, and 0.5 EGTA, adjusted to pH 7.2 with 1 M KOH solution. Chemicals for pipette and bathing solutions were supplied by Sigma-Aldrich (Vienna, Austria). Electrophysiological measurements were carried out with an Axopatch 200B patch clamp amplifier (Axon Instruments, CA, USA). […]
For orientation: Patch clamp records ionic current or voltage across a cell membrane.

Test [1] has as its system αR438fs (co-expressed with βγ-ENaC). The test can be described thus: Whole-cell patch clamp, αR438fs + WT βγ. The settings on record: read-out: EC50, solnatide, HEK-293, whole-cell, -100 mV, n = 7. Here is the method: Point mutations of α-, β-, γ- and δ-hENaC and PHA1B frameshift mutations of α-hENaC were prepared with the QuikChange Lightning Site-Directed Mutagenesis Kit (Agilent Technologies, CA, USA). Mutagenic primers were designed individually with the Primer Design Program provided on the producer’s website or for the frameshift mutations the same base changes as reported in patients (see Table 2) were performed. Primers were ordered from Sigma-Aldrich, Vienna, Austria.
as §1
Electrophysiological experiments were performed as described in detail by Shabbir et al. ([16]). […] Currents were recorded with the patch clamp method in the whole-cell mode. The chamber contained 1 ml of the bath solution of the following composition (in mM): 145 NaCl, 2.7 KCl, 1.8 CaCl2, 2 MgCl2, 5.5 glucose, and 10 HEPES, adjusted to pH 7.4 with 1 M NaOH solution. Micropipettes were pulled from thin-walled borosilicate glass capillaries (Harvard Apparatus, Holliston, MA, USA) with a DMZ Zeitz Puller to obtain electrode resistances ranging from 2 to 5 MΩ. […]

The next test has as its system αR438fs. The test can be described thus: Membrane abundance of αR438fs. The settings on record: 200 nM, relative to WT control (=1). Here is the method: (§2) Cell surface biotinylation was performed as previously described ([26]). In brief, A549 cells or transiently transfected HEK-293 cells were grown in 10 cm dishes in 37°C, 5% CO2 incubator in DMEM medium supplemented with 5% FBS. […] Medium was aspirated, and then cells were washed twice with 10 ml ice-cold phosphate-buffered saline (PBS), covered with 2.5 mg EZ-Link Sulfo-NHS-SS-Biotin (Thermo Scientific, Rockford, USA), dissolved in 10 ml ice-cold PBS, and incubated at 4°C with gentle agitation for 30 min. Fifty milliliters of quenching solution were added to cells; then cells were scraped in solution and transferred to fresh 50 ml tube. Cell suspension was centrifuged at 500 × g for 3 min. Supernatant was discarded, and 5 ml of Tris-buffered saline (TBS) was added to the cell pellet. The cell pellet was resuspended and centrifuged at 500 × g for 3 min. Supernatant was discarded and cell pellet was resuspended in lysis buffer containing protease inhibitor cocktail (10 µM pepstatin A, 10 µM phenylmethylsulfonyl fluoride, and 10 µM leupeptin) and transferred to fresh 1.5 ml centrifuge tube. Cell pellet was then homogenized on ice by ultrasonication using 1 s bursts and incubated on ice for at least 30 min. Intact cells and nuclei were pelleted by centrifugation at 10,000 × g for 2 min under cooling conditions. […] Exposed films were scanned and quantified using ImageJ (NIH, MD, USA). […]

The next test relates to αY447fs. The test can be described thus: Membrane abundance of αY447fs. The settings on record: 200 nM, relative to WT control (=1), own control 1.27 ± 0.10, p < 0.001 vs control. Here is the method:
as §2

Test [2] concerns WT or mutant frameshift α-ENaC. The test can be described thus: Membrane abundance of α-ENaC, WT or mutant frameshift (overall). The settings on record: HEK-293, WT or mutant frameshift α-ENaC. Here is the method:
as §2

Entries after “also recorded” stand apart in the source; their conditions may differ.

What is called EC50 is the concentration that produces a half-maximal response.

Regarding `C[C@@H]1NC(=O)CNC(=O)[C@H](CCC(=O)O)NC(=O)[C@@H]2CCCN2C(=O)[C@H]([C@@H](C)O)NC(=O)[C@H](CCC(=O)O)NC(=O)[C@H](CCCNC(=N)N)NC(=O)[C@H](CCC(N)=O)NC(=O)CNC(=O)[C@@H](N)CSSC[C@@H](C(=O)O)NC(=O)[C@H](Cc2ccc(O)cc2)NC(=O)[C@H](Cc2c[nH]c3ccccc23)NC(=O)[C@@H]2CCCN2C(=O)[C@H](CCCCN)NC(=O)[C@H](C)NC(=O)[C@H](CCC(=O)O)NC1=O` [solnatide, L-cysteine, L-cysteinylglycyl-L-glutaminyl-L-arginyl-L-α-glutamyl-L-threonyl-L-prolyl-L-α-glutamylglycyl-L-alanyl-L-α-glutamyl-L-alanyl-L-lysyl-L-prolyl-L-tryptophyl-L-tyrosyl-, cyclic (1→17)-disulfide], the “Effect of solnatide on current (words)” value with βγ-ENaC is given as “small current increase in WT βγ-ENaC; also recorded: can activate βγ-ENaC marginally”. In addition, the EC50 in test [1] was 56.6 ± 8 nM. Besides, the “Membrane abundance, solnatide 5 min” value in the test on αR438fs (5 min, own control 0.90 ± 0.07, p < 0.001 vs control) was 1.39 ± 0.14; in the test with αY447fs (5 min), 1.57 ± 0.13. The “Membrane abundance, solnatide 10 min” value was determined as 0.87 ± 0.10 with αR438fs (10 min, own control 0.90 ± 0.07) and 1.89 ± 0.16 in the test on αY447fs (10 min). Further, the “Membrane abundance of α-ENaC” value in test [2] is “transient and significant increase in membrane abundance of α-ENaC”.
